Source: US11076594B2, “Pyrazolone compound or salt thereof, preparation method therefor, herbicide composition and use thereof” (QINGDAO KINGAGROOT CHEMICAL COMPOUNDS CO., LTD., priority 2015, dated 2021)

Key:
Format in all cases: in vivo
Conditions in all cases: post-emergence spray at 4-5 leaf stage, 250 g/ha active ingredient with 450 kg/ha water, rated after 3 weeks in greenhouse
rice = assay: post-emergence stage experiment, crop (Table 1); parameters: key: Level 10: completely dead; Level 9: above 95% growth control rate; Level 8: above 90% growth control rate; Level 7: above 80% growth control rate; Level 6: above 70% growth control rate; Level 5: above 60% growth control rate; Level 4: above 50% growth control rate; Level 3: above 20% growth control rate; Level 2: 5%-20% growth control rate; Level 1: below 5% growth control rate
Outline: (§1)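 Weeds and crops grown in soil-filled pots in a greenhouse were sprayed at the 4-5 leaf stage (2-3 weeks after sowing). Compounds were applied in acetone with tween 80, diluted in water. After 3 weeks' culture, growth control was scored as fresh weight control rate.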

bidens bipinnata = assay: weed control effect in post-emergence stage (Table 1); parameters: key: Level 10: completely dead; Level 9: above 95% growth control rate; Level 8: above 90% growth control rate; Level 7: above 80% growth control rate; Level 6: above 70% growth control rate; Level 5: above 60% growth control rate; Level 4: above 50% growth control rate; Level 3: above 20% growth control rate; Level 2: 5%-20% growth control rate; Level 1: below 5% growth control rate
Outline: as §1

crab grass = assay: as above; parameters: key: Level 10: completely dead; Level 9: above 95% growth control rate; Level 8: above 90% growth control rate; Level 7: above 80% growth control rate; Level 6: above 70% growth control rate; Level 5: above 60% growth control rate; Level 4: above 50% growth control rate; Level 3: above 20% growth control rate; Level 2: 5%-20% growth control rate; Level 1: below 5% growth control rate
Outline: as §1

foxtail = assay: as above; parameters: key: Level 10: completely dead; Level 9: above 95% growth control rate; Level 8: above 90% growth control rate; Level 7: above 80% growth control rate; Level 6: above 70% growth control rate; Level 5: above 60% growth control rate; Level 4: above 50% growth control rate; Level 3: above 20% growth control rate; Level 2: 5%-20% growth control rate; Level 1: below 5% growth control rate
Outline: as §1

Indian mallow = assay: as above; parameters: key: Level 10: completely dead; Level 9: above 95% growth control rate; Level 8: above 90% growth control rate; Level 7: above 80% growth control rate; Level 6: above 70% growth control rate; Level 5: above 60% growth control rate; Level 4: above 50% growth control rate; Level 3: above 20% growth control rate; Level 2: 5%-20% growth control rate; Level 1: below 5% growth control rate
Outline: as §1

rorippa indica = assay: as above; parameters: key: Level 10: completely dead; Level 9: above 95% growth control rate; Level 8: above 90% growth control rate; Level 7: above 80% growth control rate; Level 6: above 70% growth control rate; Level 5: above 60% growth control rate; Level 4: above 50% growth control rate; Level 3: above 20% growth control rate; Level 2: 5%-20% growth control rate; Level 1: below 5% growth control rate
Outline: as §1

echinochloa = assay: as above; parameters: key: Level 10: completely dead; Level 9: above 95% growth control rate; Level 8: above 90% growth control rate; Level 7: above 80% growth control rate; Level 6: above 70% growth control rate; Level 5: above 60% growth control rate; Level 4: above 50% growth control rate; Level 3: above 20% growth control rate; Level 2: 5%-20% growth control rate; Level 1: below 5% growth control rate
Outline: as §1

wheat = assay: post-emergence stage experiment, crop (Table 1)
Outline: as §1

corn = assay: post-emergence stage experiment, crop (Table 1)
Outline: as §1

For `CCc1nn(CC)c(O)c1C(=O)c1ccc(C(F)(F)F)c(N2CCCCCC2=O)c1Cl` [Compound 122], the “effect on crop, Rice (level)” value (rice) was 5 (Level 5: above 60% growth control rate), the “weed control effect, Bidens bipinnata (level)” value (bidens bipinnata) was 5 (Level 5: above 60% growth control rate) and the “weed control effect, Crab grass (level)” value (crab grass) was 3 (Level 3: above 20% growth control rate). For the same molecule, the “weed control effect, Green foxtail (level)” value (foxtail) was 10, the “weed control effect, Indian mallow (level)” value (Indian mallow) was 5 (Level 5: above 60% growth control rate) and the “weed control effect, Rorippa indica (level)” value (rorippa indica) was 0. For the same molecule, the “weed control effect, Echinochloa (level)” value (echinochloa) was 9 (Level 9: above 95% growth control rate), the “effect on crop, Wheat (level)” value (wheat) was 1 (Level 1: below 5% growth control rate) and the “effect on crop, Corn (level)” value (corn) was 0.

`CCc1nn(CC)c(OC(=O)c2cn(C)nc2C)c1C(=O)c1ccc(C(F)(F)F)c(N2CCCCCC2=O)c1Cl` [Compound 123] was tested, and the “effect on crop, Rice (level)” value (rice) was 7 (Level 7: above 80% growth control rate), the “weed control effect, Bidens bipinnata (level)” value (bidens bipinnata) was 7 (Level 7: above 80% growth control rate) and the “weed control effect, Crab grass (level)” value (crab grass) was 3 (Level 3: above 20% growth control rate). The “weed control effect, Green foxtail (level)” value (foxtail) was 6 (Level 6: above 70% growth control rate), the “weed control effect, Indian mallow (level)” value (Indian mallow) was 10 and the “weed control effect, Rorippa indica (level)” value (rorippa indica) was 3 (Level 3: above 20% growth control rate). For the same molecule, the “weed control effect, Echinochloa (level)” value (echinochloa) was 10, the “effect on crop, Wheat (level)” value (wheat) was 1 (Level 1: below 5% growth control rate) and the “effect on crop, Corn (level)” value (corn) was 4 (Level 4: above 50% growth control rate).

In the case of `CCn1nc(C2CC2)c(C(=O)c2ccc(C(F)(F)F)c(N3CCCCCC3=O)c2Cl)c1OC(=O)c1cn(C)nc1C` [Compound 125], the “effect on crop, Rice (level)” value (rice) is reported as 10, the “weed control effect, Bidens bipinnata (level)” value (bidens bipinnata) is reported as 10 and the “weed control effect, Crab grass (level)” value (crab grass) is reported as 10. The “weed control effect, Green foxtail (level)” value (foxtail) was 10, the “weed control effect, Indian mallow (level)” value (Indian mallow) was 10 and the “weed control effect, Rorippa indica (level)” value (rorippa indica) was 4 (Level 4: above 50% growth control rate). For the same molecule, the “weed control effect, Echinochloa (level)” value (echinochloa) was 8 (Level 8: above 90% growth control rate), the “effect on crop, Wheat (level)” value (wheat) was 2 (Level 2: 5%-20% growth control rate) and the “effect on crop, Corn (level)” value (corn) was 5 (Level 5: above 60% growth control rate).

With `CCn1ncc(C(=O)c2ccc(C(F)(F)F)c(-n3cccn3)c2Cl)c1OC(=O)c1cn(C)nc1C` [Compound 127] the “effect on crop, Rice (level)” value (rice) was 7 (Level 7: above 80% growth control rate), the “weed control effect, Bidens bipinnata (level)” value (bidens bipinnata) was 10 and the “weed control effect, Crab grass (level)” value (crab grass) was 3 (Level 3: above 20% growth control rate). The “weed control effect, Green foxtail (level)” value (foxtail) was 10, the “weed control effect, Indian mallow (level)” value (Indian mallow) was 10 and the “weed control effect, Rorippa indica (level)” value (rorippa indica) was 10. For the same molecule, the “weed control effect, Echinochloa (level)” value (echinochloa) was 10, the “effect on crop, Wheat (level)” value (wheat) was 1 (Level 1: below 5% growth control rate) and the “effect on crop, Corn (level)” value (corn) was 1 (Level 1: below 5% growth control rate).

With `CCc1nn(C)c(O)c1C(=O)c1ccc(C(F)(F)F)c(-n2cccn2)c1Cl` [Compound 130] the “effect on crop, Rice (level)” value (rice) was 7 (Level 7: above 80% growth control rate), the “weed control effect, Bidens bipinnata (level)” value (bidens bipinnata) was 3 (Level 3: above 20% growth control rate) and the “weed control effect, Crab grass (level)” value (crab grass) was 3 (Level 3: above 20% growth control rate). The “weed control effect, Green foxtail (level)” value (foxtail) was 10, the “weed control effect, Indian mallow (level)” value (Indian mallow) was 0 and the “weed control effect, Rorippa indica (level)” value (rorippa indica) was 10. The “weed control effect, Echinochloa (level)” value (echinochloa) was 10, the “effect on crop, Wheat (level)” value (wheat) was 2 (Level 2: 5%-20% growth control rate) and the “effect on crop, Corn (level)” value (corn) was 4 (Level 4: above 50% growth control rate).

For `CCc1nn(CC)c(O)c1C(=O)c1ccc(C(F)(F)F)c(-n2cccn2)c1Cl` [Compound 132], the “effect on crop, Rice (level)” value (rice) was 5 (Level 5: above 60% growth control rate), the “weed control effect, Bidens bipinnata (level)” value (bidens bipinnata) was 5 (Level 5: above 60% growth control rate) and the “weed control effect, Crab grass (level)” value (crab grass) was 3 (Level 3: above 20% growth control rate). The “weed control effect, Green foxtail (level)” value (foxtail) was 10, the “weed control effect, Indian mallow (level)” value (Indian mallow) was 5 (Level 5: above 60% growth control rate) and the “weed control effect, Rorippa indica (level)” value (rorippa indica) was 0. For the same molecule, the “weed control effect, Echinochloa (level)” value (echinochloa) was 9 (Level 9: above 95% growth control rate), the “effect on crop, Wheat (level)” value (wheat) was 1 (Level 1: below 5% growth control rate) and the “effect on crop, Corn (level)” value (corn) was 0.

For `CCc1nn(CC)c(OC(=O)c2cn(C)nc2C)c1C(=O)c1ccc(C(F)(F)F)c(-n2cccn2)c1Cl` [Compound 133], the “effect on crop, Rice (level)” value (rice) was 8 (Level 8: above 90% growth control rate), the “weed control effect, Bidens bipinnata (level)” value (bidens bipinnata) was 8 (Level 8: above 90% growth control rate) and the “weed control effect, Crab grass (level)” value (crab grass) was 2 (Level 2: 5%-20% growth control rate). For the same molecule, the “weed control effect, Green foxtail (level)” value (foxtail) was 8 (Level 8: above 90% growth control rate), the “weed control effect, Indian mallow (level)” value (Indian mallow) was 10 and the “weed control effect, Rorippa indica (level)” value (rorippa indica) was 4 (Level 4: above 50% growth control rate). The “weed control effect, Echinochloa (level)” value (echinochloa) was 10, the “effect on crop, Wheat (level)” value (wheat) was 2 (Level 2: 5%-20% growth control rate) and the “effect on crop, Corn (level)” value (corn) was 4 (Level 4: above 50% growth control rate).

With `CCn1ncc(C(=O)c2ccc(C(F)(F)F)c(-n3cc(C)cn3)c2Cl)c1O` [Compound 136] the “effect on crop, Rice (level)” value (rice) was 10, the “weed control effect, Bidens bipinnata (level)” value (bidens bipinnata) was 10 and the “weed control effect, Crab grass (level)” value (crab grass) was 7 (Level 7: above 80% growth control rate). For the same molecule, the “weed control effect, Green foxtail (level)” value (foxtail) was 10, the “weed control effect, Indian mallow (level)” value (Indian mallow) was 10 and the “weed control effect, Rorippa indica (level)” value (rorippa indica) was 10. The “weed control effect, Echinochloa (level)” value (echinochloa) was 10, the “effect on crop, Wheat (level)” value (wheat) was 1 (Level 1: below 5% growth control rate) and the “effect on crop, Corn (level)” value (corn) was 1 (Level 1: below 5% growth control rate).

For `CCn1ncc(C(=O)c2ccc(C(F)(F)F)c(-n3cc(C)cn3)c2Cl)c1OC(=O)c1cn(C)nc1C` [Compound 137], the “effect on crop, Rice (level)” value (rice) was 8 (Level 8: above 90% growth control rate), the “weed control effect, Bidens bipinnata (level)” value (bidens bipinnata) was 10 and the “weed control effect, Crab grass (level)” value (crab grass) was 7 (Level 7: above 80% growth control rate). The “weed control effect, Green foxtail (level)” value (foxtail) was 10, the “weed control effect, Indian mallow (level)” value (Indian mallow) was 10 and the “weed control effect, Rorippa indica (level)” value (rorippa indica) was 8 (Level 8: above 90% growth control rate). For the same molecule, the “weed control effect, Echinochloa (level)” value (echinochloa) was 10, the “effect on crop, Wheat (level)” value (wheat) was 3 (Level 3: above 20% growth control rate) and the “effect on crop, Corn (level)” value (corn) was 5 (Level 5: above 60% growth control rate).

`CCn1nc(C)c(C(=O)c2ccc(C(F)(F)F)c(-n3cc(C)cn3)c2Cl)c1OC(=O)c1cn(C)nc1C` [Compound 139] was tested, and the “effect on crop, Rice (level)” value (rice) was 9 (Level 9: above 95% growth control rate), the “weed control effect, Bidens bipinnata (level)” value (bidens bipinnata) was 5 (Level 5: above 60% growth control rate) and the “weed control effect, Crab grass (level)” value (crab grass) was 8 (Level 8: above 90% growth control rate). The “weed control effect, Green foxtail (level)” value (foxtail) was 10, the “weed control effect, Indian mallow (level)” value (Indian mallow) was 3 (Level 3: above 20% growth control rate) and the “weed control effect, Rorippa indica (level)” value (rorippa indica) was 10. For the same molecule, the “weed control effect, Echinochloa (level)” value (echinochloa) was 10, the “effect on crop, Wheat (level)” value (wheat) was 2 (Level 2: 5%-20% growth control rate) and the “effect on crop, Corn (level)” value (corn) was 4 (Level 4: above 50% growth control rate).
